Measurements published in patent US20250195660A1, “INACTIVATING BACTERIA WITH ELECTRIC PULSES AND ANTIBIOTICS” (Purdue Research Foundation, priority 2018, published 2025).

Key:
[1] = system: Klebsiella pneumoniae (ATCC BAA-2146 NDM-I positive); experiment: Inactivation of K. pneumoniae by 300 ns electric pulses and/or antibiotics (CFU plating); assay type: cell-based
Excerpt: Except for rifampicin, the five other antibiotics in these examples primarily target gram-positive bacteria and are largely ineffective or not used against gram-negative bacteria in a clinical setting.
A Blumlein pulsed generator consisting of two lines comprised of twelve 2000 pF capacitors connected by inductors produced 300 ns EPs with rise-times of 30 ns and fall-times of 35 ns at a repetition frequency of 1 Hz (12). The EPs were applied to a standard 2 mm gap electroporation cuvette (Dot Scientific R) filled with a solution containing the microorganisms. Used was a Luria broth of 0.5% salinity (5 grams of NaCl/Liter) for the solution to electrically match the resistance of the sample with the impedance of the pulse generator (11Ω) to prevent signal reflection. The voltage measurements were taken using a LeCroy PPE 20 kV high voltage probe with a 1000:1 attenuation recorded by a TeleDyne LeCroy® Waverunner 6 Zi Oscilloscope with a bandwidth of 4 GHZ.
The gram-negative strains included a carbapenem-resistant Escherichia coli (ATCC® BA-2452TM, New Delhi metallo-beta-lactamase NDM-1 positive.), Klebsiella pneumoniae (ATCC® BAA-2146TM NDM-I positive), and a gentamicin, streptomycin and sulfonamide resistant Pseudomonas aeruginosa (BEI Resources NR-31040). Assessed was the gram-positive strain of methicillin resistant Staphylococcus aureus (USA300-0114 strain), which is also resistant to erythromycin and tetracycline. Samples were cultured in Luria broth (LB Broth Lennox, powder microbial growth medium, SIGMA-ALDRICH®) by taking 25 mL of broth in a 50 mL sterile conical tube and incubating in a shaker for 16 h at 37° C. Samples were diluted 50% by adding 25 mL media to the incubated sample as we plated controls for each experiment and condition.
Samples were treated in 2 mm gap cuvettes containing 365 μL of sample between the electrodes, with bio-grade mineral oil added on top of the electrode plates to prevent arcing.
To establish a common baseline for comparing different NSEP parameters, we fixed the energy density U delivered to the cuvettes according to Formula (1) (above). For 300 ns EPs, 500 EPs at 20 kV/cm and 222 EPs at 30 kV/cm delivered the same energy to the sample.
Tissue culture Petri dishes from VWR R (15 cm diameter, 10 mm height) were utilized for plating. Each plate was covered with 15 mL of Luria broth (Agar, microbiology tested powder, SIGMA-ALDRICH®), which was prepared by adding 20 g of LB Lennox (SIGMA-ALDRICH) and 15 g/L of agar to water prior to being autoclaved. The salinity of the agar was the same as the LB (0.5% NaCl) to minimize additional environmental stressors on the bacteria.
Removed was 20 μL from each cuvette and added to 180 μL of PBS in a 96-well dish in triplicate. Each well was then diluted by a ratio of 10:1 five additional times by taking 20 μL of the diluted sample into subsequent wells using multi-channel pipettes (using fresh tips for each dilution). Plated were the six dilutions of each sample two times each by adding 4 μL from each well onto the Petri dish using a multi-channel pipette, which allowed the plating of all three replicates on the same plate to achieve n=6. These plates were then cultured overnight in an incubator at 37° C., and counted the next day.

[2] = system: Stapphylococcus aureus (gram positive bacterium number 25923); experiment: Inactivation of S. aureus by 300 ns electric pulses combined with antibiotic (CFU plating); assay type: cell-based, Staphylococcus aureus; details: 30 kV/cm treatment + 20 μg/ml dose, in 10 min
[3] = system: Esherichia coli (gram negative bacterium number 25922); experiment: Inactivation of E. coli by 300 ns electric pulses combined with antibiotic (CFU plating); assay type: cell-based, Escherichia coli
Method: Equipment. Used was a capacitor based Blumlein pulse generator with a spark gap switch to produce trapezoidal EPs of 300 ns duration at the peak with rise and fall times close to 50 ns. Multiple pulses were delivered at a frequency of 1 Hz.
The samples were treated in a standard electroporation cuvette (Dot Scientific) whose resistance must match the pulse generator's impedance to prevent pulse reflection. […] Used were 2 mm cuvettes to ensure consistency between tests, and the applied voltage was measured across the cuvette using a LeCroy PPE 20 kV high voltage probe with a 1000:1 attenuation feeding into a TeleDyne LeCroy Waverunner 6 Zi Oscilloscope capable of measuring signals up to 4 GHz. Assuming a purely parallel plate geometry with minimal fringing gives an electric field E=V/d, where V is the peak voltage of the applied pulse and d is the gap distance.
Sample Preparation. These experiments assessed Stapphylococcus aureus (gram positive bacterium number 25923) from ATCC and Esherichia coli (gram negative bacterium number 25922) inoculated in luria broth (LB Broth Lennox, powder microbial growth medium. SIGMA-ALDRICH) by taking 8 mL of broth in a 50 mL sterile conical tube and incubating in a shaker for 20 h at 37° C. The sample was then diluted with fresh Luria broth until attaining an optical density of 0.25 for 100 μL on a photospectrometer (Molecular Devices) for a wavelength of 562 nm as measured in a 96-well plate. The optical density, which varies with growth or tube volume, was determined experimentally and set between 1×10^8 and 1.5×10^8 colony forming units (CFUs)/mL for the samples to be pulsed. These samples were then plated at dilutions between 10-6 and 100 (no dilution) depending on the effectiveness of the pulse treatments.
Electric Pulse Treatment Protocol. […] Although no consensus exists on a universal scaling law for applied EP “dose,” we fixed the energy density
[formula] • where N is the number of pulses and τ is the pulse duration. Fixing U for E=40, 30, and 20 kV/cm gave N=250, 445, and 1000 pulses, respectively. Cultures were plated as described below.
Cuvettes were filled with 365 μL of sample (sufficient to just cover the electrodes) and then 250 μL of molecular biology grade mineral oil was placed on top.
Added were 0.2, 2, and 20 μg/mL of each drug to the initial bacterial dilutions prior to pulsing. Samples were immediately placed on ice to minimize cell division and reduce variability. These aliquots were also used to plate individual unpulsed controls for each drug concentration.
Plating. Plating was done on standard disposable tissue culture Petri dishes from VWR (15 cm diameter, 10 mm height) and covered with 10 mL of agar in luria broth (Agar, microbiology tested powder, SIGMA-ALDRICH), which was prepared by adding 20 g of LB lennox (SIGMA-ALDRICH) and 15 g/L of agar to water and then autoclaved.
Plated were samples at dilutions of 10^−6 and 10^−3 for low and high electric field treatments, respectively, and at 10^−6 and 10^−5 for controls All samples containing 100 μL of pulsed or diluted cultures were plated on LB agar plates and counted after overnight incubation at 37° C.
Pulsing with drugs: bacterial samples of both gram-positive S. aureus and gram-negative E. coli strains were pulsed in a solution with 0.2, 2, and 20 μg/mL of tobramycin and compared to an un-pulsed drug-exposed control. Pulsing and plating were performed to ensure that the drug exposure time of the bacteria was approximately fifteen minutes.

## CO[C@H]1/C=C/O[C@@]2(C)Oc3c(C)c(O)c4c(O)c(c(/C=N/N5CCN(C)CC5)c(O)c4c3C2=O)NC(=O)/C(C)=C\C=C\[C@H](C)[C@H](O)[C@@H](C)[C@@H](O)[C@@H](C)[C@H](OC(C)=O)[C@@H]1C [rifampicin]
[1]; 30 kV/cm NSEPs + 2 μg/mL
  additional inactivation compared to NSEPs alone, K. pneumoniae: 1 log
  log reduction of K. pneumoniae: 5 log
[1]; 30 kV/cm NSEPs + 20 μg/mL
  additional inactivation compared to NSEPs alone, K. pneumoniae: 1 log
[2]
  additional log-reduction of S. aureus: 1.5 log
[3]; 20 μg/mL + 445 pulses of 30 kV/cm, consistent with complete sterilization
  log reduction of E. coli: > 9 log
[3]; 20 μg/mL, EPs vs no EPs
  synergy (additional kill off) compared to just the drug, E. coli: 4 log
[3]; EPs + 2 and 20 μg/mL
  additional log-reduction of E. coli compared to pulsing alone: 1.5 log
